One test deals with SH-SY5Y. Kind of test: Antiproliferative activity against human SH-SY5Y cells by MTS reduction assay. Background: Tetrazolium dyes change colour on reduction, which living cells bring about.
In test [1] the target is Glycogen synthase kinase-3 (Sus scrofa, UniProt B2LUN4+I6LNT8). Kind of test: Inhibition of pig brain GSK-3alpha/beta using YRRAAVPPSPSLSRHSSPHQSpEDEEE as substrate.
The subject of a further test is IMR-32. Description: Antiproliferative activity against human IMR32 cells by MTS reduction assay.
Another test concerns DU-145. Kind of test: Antiproliferative activity against human DU145 cells after 48 hrs by resazurin reduction test. In kind it is functional, cell-based. The note with it: DU-145, 48 h.
A short description of test [2]: Inhibition of pig brain CK1 delta/epsilon using RRKHAAIGpSAYSITA as substrate. Also on record: species or system Sus scrofa.
A further test deals with PC-3. Description: Antiproliferative activity against human PC3 cells after 48 hrs by resazurin reduction test. Conditions: PC-3, 48 h.
A further test concerns HT-22. Description: Antiproliferative activity against mouse HT22 cells by MTS reduction assay.
The test system of another test is PA-1. Kind of test: Antiproliferative activity against human PA1 cells after 48 hrs by resazurin reduction test. In kind it is functional, cell-based. Conditions: PA-1, 48 h. On the technique in general: Alamar Blue is a resazurin reagent that responds to reducing activity.
A further test relates to MCF7. Kind of test: Antiproliferative activity against human MCF7 cells after 48 hrs by resazurin reduction test. The note with it: MCF7, 48 h.
The target in test [3] is Dual specificity tyrosine-phosphorylation-regulated kinase 1A (Rattus norvegicus, UniProt Q63470). Description: Inhibition of rat recombinant GST-tagged DYRK1A using myelin protein as substrate and [gamma32]-ATP after 30 mins by scintillation counting.
Test [4] is described as follows: Antiproliferative activity against human primary fibroblasts after 48 hrs by resazurin reduction test. In kind it is cell-based. The note with it: Fibroblast.
Test [5] addresses Cyclin-dependent kinase 5/CDK5 activator 1 (Homo sapiens, UniProt Q00535). Kind of test: Inhibition of human recombinant CDK5/p25 using Histone H1 and [gamma32]-ATP after 30 mins by scintillation counting. It is filed as protein-complex assay.
In test [6] the target is Dual specificity protein kinase CLK1 (Homo sapiens, UniProt P49759).
Dual specificity protein kinase CLK1, sequence (P49759 whole entry): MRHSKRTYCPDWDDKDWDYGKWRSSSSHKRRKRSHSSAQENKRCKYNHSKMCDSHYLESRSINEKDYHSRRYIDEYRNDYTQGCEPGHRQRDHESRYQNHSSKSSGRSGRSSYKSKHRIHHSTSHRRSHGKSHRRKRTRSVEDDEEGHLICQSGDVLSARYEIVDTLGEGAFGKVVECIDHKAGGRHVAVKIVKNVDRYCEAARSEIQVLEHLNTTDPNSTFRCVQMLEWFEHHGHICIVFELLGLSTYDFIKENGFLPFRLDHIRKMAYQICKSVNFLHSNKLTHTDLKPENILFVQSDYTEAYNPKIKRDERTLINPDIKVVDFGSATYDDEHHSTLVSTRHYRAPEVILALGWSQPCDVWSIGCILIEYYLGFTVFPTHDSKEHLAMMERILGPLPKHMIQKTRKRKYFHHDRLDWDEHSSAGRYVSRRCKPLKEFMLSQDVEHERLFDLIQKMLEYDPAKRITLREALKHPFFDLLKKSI

Cyclin-dependent kinase 5/CDK5 activator 1, sequence (Q00535 whole entry): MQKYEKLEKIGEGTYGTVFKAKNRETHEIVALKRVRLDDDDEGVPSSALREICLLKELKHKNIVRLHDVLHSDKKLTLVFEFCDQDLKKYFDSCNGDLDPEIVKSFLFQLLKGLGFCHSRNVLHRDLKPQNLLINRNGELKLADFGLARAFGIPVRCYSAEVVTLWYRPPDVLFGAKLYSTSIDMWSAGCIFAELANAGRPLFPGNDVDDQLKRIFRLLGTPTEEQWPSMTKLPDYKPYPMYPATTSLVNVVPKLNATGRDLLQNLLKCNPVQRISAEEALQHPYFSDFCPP
Cyclin-dependent kinase 5/CDK5 activator 1, sequence (Q15078 whole entry, further chain): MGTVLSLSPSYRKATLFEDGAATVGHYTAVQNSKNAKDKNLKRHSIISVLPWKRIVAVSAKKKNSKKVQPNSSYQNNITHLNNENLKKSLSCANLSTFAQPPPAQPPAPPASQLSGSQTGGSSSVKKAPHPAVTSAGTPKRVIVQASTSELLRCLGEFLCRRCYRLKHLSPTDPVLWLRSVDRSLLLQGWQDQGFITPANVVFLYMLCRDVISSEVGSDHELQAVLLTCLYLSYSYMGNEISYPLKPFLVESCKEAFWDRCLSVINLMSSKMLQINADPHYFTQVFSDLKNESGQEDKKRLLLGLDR

Turning to `COc1cccc(-c2cnc(N)nc2-c2c[nH]c3c(Br)cccc23)c1`, the IC50 – broadly, the concentration that inhibits the measured activity by half – was greater than 10 µM in the test on SH-SY5Y; greater than 10 µM in test [1]; greater than 10 µM with IMR-32; 33 µM with DU-145; 4.2 µM in [2]; 29 µM with PC-3. In addition, the IC50 in the test with HT-22 is greater than 10 µM; in the test with PA-1, 13 µM; in the test with MCF7, greater than 10 µM; in test [3], 0.85 µM; in test [4], 31 µM; in test [5], greater than 10 µM. In test [6], the IC50 came out at 0.87 µM.

Regarding `Nc1ncc(I)c(-c2c[nH]c3cccc([N+](=O)[O-])c23)n1`, the IC50 in the test with SH-SY5Y is greater than 10 µM; in [1] it was greater than 10 µM; in the test with IMR-32, greater than 10 µM; with DU-145, 5.4 µM; in test [2] it was greater than 10 µM; with PC-3, 7 µM. The concentration for half-maximal inhibition (IC50) with HT-22 was greater than 10 µM; with PA-1, 3.3 µM; in the test on MCF7, greater than 10 µM; in test [3], 9.1 µM; in test [4] it was 5 µM; in [5], greater than 10 µM. This molecule also yielded an IC50 in test [6] of 7.1 µM.

In the case of `Nc1ncc(I)c(-c2c[nH]c3ccc([N+](=O)[O-])cc23)n1`, the IC50 was greater than 25 µM with SH-SY5Y; 0.66 µM in test [1]; 10 µM with IMR-32; 13.3 µM in the test with DU-145; 0.42 µM in test [2]; 26 µM in the test on PC-3. The IC50 in the test on HT-22 is 20 µM; with PA-1 it was 8.4 µM; in the test with MCF7, greater than 25 µM; in test [3], 0.25 µM; in test [4], 19 µM; in [5] it was 1.6 µM. In [6], this molecule yielded an IC50 of 0.12 µM.

As to `Nc1ncc(I)c(-c2c[nH]c3cc([N+](=O)[O-])ccc23)n1`, the IC50 was found to be 12 µM in the test on SH-SY5Y; 2.6 µM in [1]; 10 µM with IMR-32; 6.3 µM with DU-145; 1 µM in test [2]; 11 µM in the test on PC-3. Moreover, the 50% inhibitory concentration (IC50) is 18 µM in the test with HT-22; 2 µM with PA-1; greater than 25 µM with MCF7; 0.095 µM in [3]; 13 µM in test [4]; 1.6 µM in test [5]. This molecule also displayed an IC50 in [6] of 0.067 µM.

With `Nc1ncc(I)c(-c2c[nH]c3c([N+](=O)[O-])cccc23)n1`, the 50% inhibitory concentration (IC50) with SH-SY5Y was greater than 10 µM; in [1], greater than 10 µM; with IMR-32, greater than 10 µM; with DU-145, 5.2 µM; in test [2] it was greater than 10 µM; in the test with PC-3 it was 6 µM. Moreover, the 50% inhibitory concentration (IC50) in the test on HT-22 is greater than 10 µM; in the test with PA-1, 3.2 µM; in the test with MCF7, greater than 10 µM; in [3], 0.46 µM; in test [4] it was 4.7 µM; in test [5] it was greater than 10 µM. Inhibition in [6] was half-maximal at 0.041 µM (IC50).

For the molecule `Nc1ncc(I)c(-c2c[nH]c3ccccc23)n1`, the IC50 with SH-SY5Y came out at 7.5 µM; in [1] it was 3.7 µM; with IMR-32, 10 µM; in the test with DU-145 it was 5 µM; in test [2] it was 0.9 µM; with PC-3, 10.6 µM. Moreover, the IC50 in the test with HT-22 is 7.3 µM; with PA-1, 3.3 µM; in the test on MCF7, 17 µM; in test [3], 0.066 µM; in [4] it was 8 µM; in test [5], 1.4 µM. For the same molecule, in [6], the half-maximal inhibitory concentration (IC50) was 0.03 µM.

For the molecule `Nc1ncc(I)c(-c2c[nH]c3cccc(N)c23)n1`, the IC50 with SH-SY5Y is greater than 10 µM; in test [1], greater than 10 µM; in the test with IMR-32, greater than 10 µM; in the test with DU-145, greater than 50 µM; in test [2], greater than 10 µM; in the test with PC-3, greater than 50 µM. Moreover, the IC50 was greater than 10 µM in the test with HT-22; 18 µM in the test with PA-1; greater than 10 µM with MCF7; 2.8 µM in test [3]; greater than 50 µM in test [4]; greater than 10 µM in test [5]. This molecule registered an IC50 in test [6] of 1 µM.

With `Nc1ccc2[nH]cc(-c3nc(N)ncc3I)c2c1`, the IC50 is greater than 10 µM with SH-SY5Y; greater than 10 µM in [1]; greater than 10 µM in the test with IMR-32; 40 µM in the test on DU-145; 0.27 µM in test [2]; 48 µM with PC-3. The IC50 is greater than 10 µM with HT-22; 11 µM in the test on PA-1; greater than 10 µM with MCF7; 2.3 µM in [3]; 44 µM in [4]; greater than 10 µM in test [5]. In [6], this molecule displayed an IC50 of 0.61 µM.

For `Nc1ccc2c(-c3nc(N)ncc3I)c[nH]c2c1`, the IC50 in the test with SH-SY5Y was greater than 10 µM; in [1], 4.2 µM; with IMR-32, greater than 10 µM; in the test with DU-145, 26 µM; in test [2] it was 0.51 µM; in the test on PC-3, 47 µM. Further, the IC50 is greater than 10 µM in the test on HT-22; 13 µM in the test on PA-1; greater than 10 µM in the test with MCF7; 0.22 µM in [3]; 36 µM in test [4]; 6.2 µM in test [5]. The same molecule gave an IC50 in test [6] of 0.08 µM.

For `Nc1ncc(I)c(-c2c[nH]c3c(N)cccc23)n1`, the IC50 with SH-SY5Y amounted to 9 µM; in [1], 4.4 µM; in the test on IMR-32 it was 4 µM; with DU-145, 6.1 µM; in test [2], 1.1 µM; in the test on PC-3, 14 µM. Also, the half-maximal inhibitory concentration (IC50) with HT-22 was 12 µM; in the test with PA-1 it was 2.5 µM; with MCF7, 20 µM; in test [3], 0.11 µM; in test [4], 10.6 µM; in [5], 0.66 µM. Besides, in test [6], the midpoint of inhibition, the IC50, lay at 0.026 µM.

As to `Nc1ncc(I)c(-c2c[nH]c3cccc(Br)c23)n1`, the half-maximal inhibitory concentration (IC50) is greater than 10 µM in the test with SH-SY5Y; greater than 10 µM in test [1]; greater than 10 µM with IMR-32; 1.3 µM in test [2]; greater than 10 µM in the test with PC-3; greater than 10 µM with HT-22. Also, the half-inhibitory concentration (IC50) is greater than 10 µM in the test with PA-1; greater than 10 µM in the test with MCF7; 1.45 µM in test [3]; greater than 10 µM in test [5]; 2.3 µM in test [6].

Take `Nc1ncc(I)c(-c2c[nH]c3ccc(Br)cc23)n1`: the concentration for half-maximal inhibition (IC50) in the test with SH-SY5Y is 23 µM; in test [1], 2.1 µM; in the test with IMR-32, 13 µM; in [2], 0.77 µM; with PC-3, greater than 10 µM; in the test on HT-22, 8 µM. Further, the IC50 was greater than 10 µM in the test with PA-1; greater than 25 µM with MCF7; 0.33 µM in test [3]; 1.8 µM in test [5]; 0.18 µM in test [6].

Take `CC(=O)c1ccc(-c2cnc(N)nc2-c2c[nH]c3ccc(Br)cc23)cc1`: the IC50 is greater than 25 µM in the test on SH-SY5Y; 0.68 µM in [1]; 13 µM with IMR-32; greater than 10 µM in test [2]; greater than 10 µM in the test on PC-3; 10 µM with HT-22. Further, the IC50 with PA-1 was greater than 10 µM; in the test on MCF7, 4.2 µM; in test [3], 8.45 µM; in test [5], greater than 10 µM; in test [6], 1.6 µM.

The values above are taken from ChEMBL document CHEMBL1799982, “Synthesis, protein kinase inhibitory potencies, and in vitro antiproliferative activities of meridianin derivatives” (J Med Chem, 2011).
